According to patent US4632926A, “Quinazolinone derivatives which are active against coccidiosis” (priority 1982, dated 1986):
“Also recorded” adds a separate entry of the source.

Assays:
coccidia = conditions: cited from earlier work
Eimeria acervulina = test: Coccidiostatic activity in vivo against Eimeria acervulina (presence of oocysts in the excrements); set-up: species or system Eimeria acervulina (in Ranger pullets); key to E. acervulina (oocysts): A: absent; M: minimal present; P: present
Protocol: (§1) Groups of 5 one-week-old Ranger pullets were infected each with a mixture of 5500 sporulated oocysts of Eimeria tenella and with 5000 sporulated oocysts of Eimeria acervulina.
(§2) The compound being tested was administered at the preselected dose in admixture with a poultry-feed (LD5) poor in vitamin K and containing no other additive.
(§3) The pullets were fed ad libitum with a fodder so prepared, beginning from 1 day prior to the infestation and going on for further 5 days.
(§4) As a check, there were used non-infested non-treated chickens and infested non-treated chickens.
(§5) The evaluation of the activity on Eimeria tenella was accomplished by ascertaining the presence of lesions, if any, 5 days after the infection, while the activity on Eimeria acervulina was evaluated by ascertaining the presence of oocysts, if if any, in the excrements 5 days after the infection.
(§6) The above compounds were tested for anticoccidial activity against E. tenella and E. acervulina according to the procedure hereabove described.
(§7) The activity against E. tenella was expressed as percent control of the infection at the considered dose, while the activity against E. acervulina was expressed on the basis of the presence, if any, of oocysts in the excrements and was rated as follows: […]

Eimeria tenella = test: Coccidiostatic activity in vivo against Eimeria tenella (lesions, % control of the infection); set-up: species or system Eimeria tenella (in Ranger pullets)
Protocol: as §1, §2, §3, §4, §5, §6, §7

chickens [1] = test: Toxicity phenomena in chickens fed with the compound in poultry-feed; type: in vivo
[2] = Toxicity towards poultry, LD50; conditions: chicken, in vivo
poultry = conditions: background; cited from earlier work
chickens [3] = conditions: poultry; cited from earlier work

Row | Compound | activity of trans-isomer compared with cis isomer (coccidia; trans versus cis isomer in the piperidine ring, Barringer et al. 1973) | E. acervulina (oocysts) (Eimeria acervulina; 3.125 ppm in feed) | E. acervulina (oocysts) (Eimeria acervulina; 6.25 ppm in feed) | E. acervulina (oocysts) (Eimeria acervulina; 12.5 ppm in feed) | E. acervulina (oocysts) (Eimeria acervulina; 25 ppm in feed) | E. tenella (% control) (Eimeria tenella; 3.125 ppm in feed) | E. tenella (% control) (Eimeria tenella; 6.25 ppm in feed) | E. tenella (% control) (Eimeria tenella; 12.5 ppm in feed) | E. tenella (% control) (Eimeria tenella; 25 ppm in feed) | toxicity phenomena in chickens (chickens [1]; 100 ppm in poultry-feed along the duration of the activity test) | LD50 [2] | activity against E. acervulina, result in words (Eimeria acervulina; dose of 6.25 ppm) | activity against E. tenella, result in words (Eimeria tenella; dose of 12.5 ppm) | toxicity phenomena in chickens (chickens [1]; about 38 ppm in the poultry-feed) | anticoccidial activity (coccidia; background, poultry, even at very low doses (practical dose 3 ppm in feed)) | toxicity for chickens (poultry) | LD50 (chickens [3])
1 | O=C(C[C@H]1NCCC[C@@H]1O)Cn1cnc2cc(Br)c(Cl)cc2c1=O (relative stereo) [trans-isomer] | higher activity than the corresponding cis isomer | – | – | – | – | – | – | – | – | – | – | – | – | – | – | – | –
2 | O=c1c2cc(Cl)c(Br)cc2ncn1CC(CC1NCCCC1O)=NO (stereo not shown) [Compound A, reference compound] | – | P | P | P | M | 0 % control | 0 % control | 40 % control | 100 % control | – | – | – | – | – | – | – | –
3 | NN=C(CC1NCCCC1O)Cn1cnc2cc(Br)c(Cl)cc2c1=O (stereo not shown) [Compound No. 1, 6-chloro-7-bromo-3-[3-(3-hydroxy-2-piperidyl)-acetonyl]-(3H)-quinazolin-4-one hydrazone] | – | M | A | A | A | 100 % control | 100 % control | 100 % control | 100 % control | – | – | – | – | – | – | – | –
4 | CCNN=C(CC1NCCCC1OC)Cn1cnc2cc(Br)c(Cl)cc2c1=O (stereo not shown) [Compound No. 2, 6-chloro-7-bromo-3-[3-(3-methoxy-2-piperidyl)-acetonyl]-(3H)-quinazolin-4-one ethylhydrazone] | – | – | P | A | A | – | 100 % control | 100 % control | 100 % control | No toxicity phenomena | ~100 mg/kg | complete activity | full activity | – | – | – | –
5 | O=C(CC1NCCCC1O)Cn1cnc2cc(Br)c(Cl)cc2c1=O (stereo not shown) [Halofuginone] | – | – | – | – | – | – | – | – | – | – | – | – | – | show phenomena of toxicity | particularly active against coccidiosis in poultry; also recorded: high anticoccidial activity even at very low doses | very toxic for chickens | 17.6 mg/Kg body weight
